Assays:
[1] = Tmax in CD-1 mouse at 40 mg/kg, ip by HPLC-MS/MS analysis; type: ADME, organism-based; settings: in vivo
[2] = AUC in CD-1 mouse at 40 mg/kg, ip by HPLC-MS/MS analysis; type: ADME, organism-based; set-up: dose 40 mg/kg; settings: in vivo
[3] = AUC(0 to t) in CD-1 mouse at 10 mg/kg, po by HPLC-MS/MS analysis; type: ADME, organism-based; set-up: dose 10 mg/kg; settings: in vivo
[4] = Half life in CD-1 mouse at 40 mg/kg, ip by HPLC-MS/MS analysis; type: ADME, organism-based; settings: in vivo
[5] = AUC in Wistar rat plasma at 40 mg/kg, ip; type: ADME, organism-based; set-up: dose 40 mg/kg
[6] = Bioavailability in CD-1 mouse plasma at 40 mg/kg, ip by HPLC-MS/MS analysis; type: ADME, organism-based
[7] = Oral bioavailability in CD-1 mouse plasma at 10 mg/kg by HPLC-MS/MS analysis; type: ADME, organism-based
[8] = Lipophilicity, logP of compound; type: physicochemical; settings: octanol/water
[9] = AUC in CD-1 mouse at 1 mg/kg, iv by HPLC-MS/MS analysis; type: ADME, organism-based; set-up: dose 1 mg/kg; settings: in vivo
[10] = Volume of distribution at steady state in CD-1 mouse at 1 mg/kg, iv by HPLC-MS/MS analysis; type: ADME, organism-based; settings: in vivo, read-out: Vdss
[11] = Distribution coefficient, logD of compound; type: physicochemical; settings: octanol/water
[12] = Cmax in CD-1 mouse at 40 mg/kg, ip by HPLC-MS/MS analysis; type: ADME, organism-based; set-up: route intraperitoneal, dose 40 mg/kg; settings: in vivo
[13] = Clearance in CD-1 mouse at 1 mg/kg, iv by HPLC-MS/MS analysis; type: ADME, organism-based; settings: in vivo
[14] = AUC(0 to t) in CD-1 mouse at 40 mg/kg, ip by HPLC-MS/MS analysis; type: ADME, organism-based; set-up: dose 40 mg/kg; settings: in vivo
[15] = Cmax in CD-1 mouse at 10 mg/kg, po by HPLC-MS/MS analysis; type: ADME, organism-based; set-up: route oral, dose 10 mg/kg; settings: in vivo
[16] = Apparent permeability across apical to basolateral side in human Caco-2 cells; type: ADME, cell-based
[17] = AUC(0 to t) in CD-1 mouse at 1 mg/kg, iv by HPLC-MS/MS analysis; type: ADME, organism-based; set-up: dose 1 mg/kg; settings: in vivo
[18] = Tmax in CD-1 mouse at 10 mg/kg, po by HPLC-MS/MS analysis; type: ADME, organism-based; settings: in vivo
[19] = Half life in CD-1 mouse at 1 mg/kg, iv by HPLC-MS/MS analysis; type: ADME, organism-based; settings: in vivo
[20] = AUC in Wistar rat brain at 40 mg/kg, ip; type: ADME, organism-based; set-up: dose 40 mg/kg
[21] = Dissociation constant, pKa of compound; type: physicochemical

Tmax [1]: 4.8 min | AUC [2]: 5960 ng·h/mL | AUC(0-t) [3]: 122 ng·h/mL | half-life [4]: 36 min | AUC [5]: 2810 ng·h/mL | bioavailability [6]: > 100% | bioavailability [7]: 13% | logP [8]: 3.7 | AUC [9]: 93 ng·h/mL | Vd [10]: 2.9 L/kg | logD [11]: 2.2 | Cmax [12]: 11300 ng/mL | clearance [13]: 180 mL/min/kg | AUC(0-t) [14]: 5950 ng·h/mL | Cmax [15]: 130 ng/mL | Papp A→B [16]: 16.9 ×10⁻⁶ cm/s | AUC(0-t) [17]: 92 ng·h/mL | Tmax [18]: 30 min | half-life [19]: 24 min | AUC [20]: 2430 ng·h/mL | pKa [21]: 8.9
Compound: CCC(=O)N(CC1(N2CCN(CC(C)C)CC2)CCOCC1)c1cccc(C(F)(F)F)n1

From ChEMBL document CHEMBL5032513, “Propionamide Derivatives as Dual μ-Opioid Receptor Agonists and σ1 Receptor Antagonists for the Treatment of Pain” (J Med Chem, 2021)
